Laboratory results: patent publication EP4596561A1, “PHOSPHORUS-CONTAINING COMPOUND, PHARMACEUTICAL COMPOSITION AND USE THEREOF” (Suzhou Genhouse Bio Co., Ltd., priority 2022, dated 2024)

Legend:
MSTO-211H cells = experiment: Pharmacodynamic test, MSTO-211H subcutaneous xenograft; format: in vivo, nude mice (BALB/c nu/nu); conditions: MSTO-211H xenograft
Experimental: Healthy female nude mice (BALB/c nu/nu) aged 6-8 weeks were housed in an SPF environment in accordance with animal ethical guidelines. The well-growing 5M MSTO-211H cells were harvested through trypsin digestion, washed in phosphate-buffered saline (PBS), and then resuspended in PBS containing 50% matrigel (BD Biosciences).
Subcutaneous injection was then performed at the dorsolateral sites of the mice, and the tumor volume was measured once every three days thereafter. When the tumor volume reached around 150-200 mm^3, the mice were randomly assigned to different treatment groups. Any one of the compounds described herein was prepared accordingly and administered at an appropriate dose. Finally, the tumor growth in the nude mice was analyzed after 4 to 6 weeks based on the growth of the tumors.

[1] = test system: NCI-H2452 (NF2 wide-type); experiment: Inhibition of cell proliferation (CellTiter-Lumi); format: cell-based; conditions: Homo sapiens, 72 h + another 72 h treatment
NCI-H28 (NF2 wide-type) = experiment: Inhibition of cell proliferation (CellTiter-Lumi); format: cell-based; conditions: Homo sapiens, 72 h + another 72 h treatment
[2] = test system: MSTO-211H (NF2 wide-type); experiment: Inhibition of cell proliferation (CellTiter-Lumi); format: cell-based; conditions: Homo sapiens, 72 h + another 72 h treatment
Experimental: NCI-H2052 (NF2 mutant), NCI-H226 (NF2 mutant), NCI-H2452 (NF2 wide-type), NCI-H28 (NF2 wide-type), and MSTO-211H (NF2 wide-type) cells were cultured in RPMI 1640 complete media.
The normally growing cells described above were digested with a trypsin cell-digesting solution, centrifuged, counted, and then plated in a 96-well plate at a density of 1000 cells per well. Administration was performed 24 h after the cell plating. Inhibitors at different concentration gradients were added at 10 µL per well, and three replicate wells were set for each concentration point. The starting concentration was 20 µM and diluted 8 times with a 4-fold gradient. A corresponding negative control group treated with 0.1% DMSO was also set up. After 72 h of drug treatment, the cell culture plate to be tested was taken out of the incubator. The culture medium in the 96-well plate was pipetted, and 190 µL of fresh RPMI 1640 complete medium was added. Another administration was performed, and the cells were cultured for another 72 h. The 96-well plate was taken out and allowed to equilibrate at room temperature for 10 min. The medium in the 96-well plate was pipetted, and 200 µL of CellTiter-Lumi™ luminescent cell viability detection solution (mixed with a medium in a ratio of 1:1) was added. After shaking for two minutes, the mixture was reacted at room temperature for 10 min. Then, 150 µL of liquid was pipetted from the transparent 96-well plate and transferred to a white 96-well plate for chemiluminescence reading. The background value was subtracted from the value for each well to calculate the cell survival rate. Survival rate (%) = […]. Sample is the chemiluminescence of the drug-treated group, and Vehicle is the […] of the DMSO control group. A sigmoidal dose-survival rate curve was plotted using a non-linear regression model in the GraphPad Prism 7.0 software, and the IC50 values or GI50 values were calculated.

Compound | IC50 [1] [µM] | IC50 (NCI-H28 (NF2 wide-type)) [µM] | IC50 [2] [µM] | other results
Cn1cnc(-c2cc(P(C)(C)=O)cnc2Nc2ccc(C(F)(F)F)cc2)c1 [Example 8] | – | – | – | TGI (MSTO-211H cells; 50mpk QD): 50mpk QD TGI = 104.28%
Cn1cnc(-c2cc(P(C)(C)=O)ccc2Nc2ccc(C(F)(F)F)cc2)c1 [Example 14] | – | – | – | TGI (MSTO-211H cells; 50mpk QD): 50mpk QD TGI = 100.43%; TGI (MSTO-211H cells; 150mpk QD): 150mpk QD TGI = 118.27%
CP(C)(=O)c1ccc2c(c1)c1cccnc1n2-c1ccc(C(F)(F)F)cc1 [Example 5] | > 20 | > 1.25 | > 5 | –
CP(C)(=O)c1ccc(Nc2ccc(C(F)(F)F)cc2)c(-c2ncccn2)c1 [Example 12] | > 20 | > 5 | > 20 | –
CP(C)(=O)c1cnc(Nc2ccc(C(F)(F)F)cc2)c(-c2cn3c(n2)CCC3)c1 [Example 22] | – | – | – | TGI (MSTO-211H cells; 150mpk QD): 150mpk QD TGI = 102.62%
CP(C)(=O)c1ccc2c(Oc3ccc(C(F)(F)F)cc3)cccc2c1 [Example 7] | – | – | – | TGI (MSTO-211H cells; 25mpk QD): 25mpk QD TGI = 107.93%
CP(C)(=O)c1ccc(Nc2ccc(C(F)(F)F)cc2)c(-c2ccccn2)c1 [Example 10] | > 5 | > 1.25 | > 1.25 | –
